Earlier results in patent US7276228B2, “Methods for treating hematological disorders through inhibition of DNA methylation and histone deacetylase” (SuperGen, Inc., priority 2001, dated 2007).

Legend:
HDAC = conditions: for concentration at which HDAC activity is inhibited: literature statements
mammalian HDAC = conditions: Yoshida et al. (1990)
DNA methyltransferase = conditions: decitabine replacing 5-methylcytosine at a site of methylation in DNA; Juttermann et al. (1994)

## O=C(/C=C/c1cccc(C(=O)NO)c1)NO [CBHA, m-carboxy-cinnamic acid bishydroxamic acid]
HDAC; in vitro or in vivo, Glick et al. (1999)
  concentration at which HDAC is inhibited: micromolar concentration or lower

## C/C=C1\NC(=O)[C@H]2CSSCC/C=C/[C@H](CC(=O)N[C@H](C(C)C)C(=O)N2)OC(=O)[C@H](C(C)C)NC1=O [FR901228]
HDAC
  concentration at which HDAC activity is inhibited: micromolar concentrations

## CC(/C=C/C(=O)NO)=C\[C@@H](C)C(=O)c1ccc(N(C)C)cc1 [TSA, trichostatin A]
Mammalian HDAC
  inhibition of mammalian HDAC: potent inhibitor

## Nc1ncn([C@H]2C[C@H](O)[C@@H](CO)O2)c(=O)n1 [decitabine, 5-aza-2′-deoxycytidine]
DNA methyltransferase
  inactivation of DNA methyltransferase: irreversible inactivation

## depudecin
HDAC
  concentration at which HDAC activity is inhibited: micromolar concentrations
